# Assay results reported in patent publication US10954258B2, “STAT3 dimerization inhibitors” (H. LEE MOFFITT CANCER CENTER AND RESEARCH INSTITUTE, INC., priority 2012, dated 2021).
# How the values were obtained:
# Type in all cases: cell-based, human
# [1] = target: binding of FLAG-STAT3 to HA-STAT3 (Mus musculus, UniProt P42227); experiment: co-immunoprecipitation of FLAG-STAT3 with HA-STAT3 in HEK293 cells; settings: HEK293 cells co-expressing FLAG- and HA-STAT3; treated 4 h
# Procedure: HEK-293/FLAG-STAT3/HA-STAT3 cells were treated for 4 h with vehicle, S3I-1757, S3I-1756, Ac-G{pTYR}LPQTV-[…]-NH2 (SEQ ID NO:3) or Ac-GYLPQTV-[…]-NH2 (SEQ ID NO:4) and then lysed in 20 mM Tris-HCl (pH 7.4), 5 mM EDTA, 10 mM Na4P2O7, 100 mM NaF, 2 mM Na3VO4, 1% NP-40.1 mM PMSF and 10 mg/ml aprotinin. For EGF stimulation group, HEK-293/FLAG-STAT3/HASTAT3 cells were treated by 100 ng/ml EGF for 30 minutes before making cell lysate. Protein A or G agarose (EMD Millipore, Billerica, Mass., USA) was washed twice with PBS and restore to 50% slurry with PBS. 500 μg of lysate were pre-cleared by mixture of protein A and protein G-agarose for 1 h at 4° C. and then remove protein A and G-agarose by centrifuge at 1300 rpm for 3 minutes. And then 500 μg of lysate was immunoprecipitated with 50 ng of HA antibody overnight at 4° C. on shaker and then capture the immunocomplex by adding 100 μl Protein A and G agarose/sepharose bead slurry for 1 hour at 4° C. Samples were washed five times with lysis buffer and then boiled in 5×SDS-PAGE sample buffer and run on SDS-PAGE gel. Protein was transferred to nitrocellulose membrane and then blotted as described above for HA, FLAG, pSTAT3, EGFR, and STAT3.
# However, the FP assay only measured the ability of S3I-1757 to displace the 7 amino acid fluorescein-labelled GpYLPQTV phosphotyrosine peptide from the SH2 domain of STAT3 protein in vitro. Therefore, it was determined if the intracellular reciprocal binding of 2 full-length STAT3 proteins is inhibited. To this end, an assay was developed to measure directly STAT3-STAT3 dimerization in intact cells by cloning HA-tagged STAT3 and FLAG-tagged STAT3, generating HEK293 cells that stably co-express HA-STAT3 and FLAG-STAT3 and using these cells for coimmunoprecipitation and co-localization. […] This assay was validated by treating the FLAG-STAT3/HA-STAT3 HEK293 cells with tyrosine phosphorylated or nonphosphorylated GYLPQTV peptide fused to a membrane-translocating sequence (MTS) to allow cell uptake. […]
# STAT3 binding to EGFR = target: T1, STAT3 binding to EGFR (Mus musculus, UniProt P42227); experiment: co-immunoprecipitation of EGFR and P-STAT3 with HA-STAT3 after EGF stimulation; settings: HA-STAT3/FLAG-STAT3/HEK293 cells stimulated with EGF
# T1 construct: expressed in transfected cells; host or cells: HEK293 stably co-expressing HA-STAT3 and FLAG-STAT3; EGFR endogenous; stimulated with 100 ng/ml EGF
# [2] = target: dimerization of FLAG-STAT3 and HA-STAT3 (Mus musculus, UniProt P42227); experiment: co-localization of FLAG-STAT3 and HA-STAT3 by immunofluorescence; settings: HEK293 cells; 1, 2 or 4 hours
# Procedure: HEK-293/FLAG-Stat3/HA-Stat3 cells were cultured (4000 cells per well) with G418 400 ug/ml in 8 well chamber slide. The cells were treated with S3I-1757 or S3I-1756 for 1 hour, 2 hours, or 4 hours. The cells were then rinsed with phosphate buffered saline (PBS), fixed with ice-cold methanol for 15 minutes, washed 3 times in PBS, permeabilized with 0.2% Triton X-100 for 15 minutes, and further washed 3-4 times with PBS. Cells were then blocked in 1% bovine serum albumin (BSA) for 30 min and incubated with anti-HA (Santa Cruz, Santa Cruz, Calif., USA) or anti-FLAG (Sigma, St. Louis, Mo., USA) primary antibody at 1:100 dilution at 4° C. overnight. Subsequently, cells were rinsed 4-5 times in PBS, incubated with Alexa fluor secondary antibody (Invitrogen, Carlsbad, Calif., USA) for 1 hour at room temperature in the dark. Cells were then washed 5 times with PBS, covered with cover slides with […] mounting medium containing DAPI (Vector Lab, Inc., Burlingame, Calif.), and examined immediately under Zeiss Upright Fluorescence Microscope (Zeiss, Thornwood, N.Y., USA).
# HASTAT3/FLAG-STAT3/HEK 293 cells were treated with vehicle, S3I-1757 or S3I-1756 and the cells were processed for immunofluorescence staining for FLAG-STAT3 and HA-STAT3 and analyzed by confocal microscopy.
# [3] = system: P-STAT3, P-Erk, P-Akt, Bcl-xL, Survivin, MMP9 and Cyclin D1 in MDA-MB-468 cells; experiment: western immunoblotting of P-STAT3, P-Akt, P-Erk and STAT3 target genes; settings: 18 hours
# Procedure: MDA-MB-468 cells were treated with vehicle (DMSO), S3I-1757 at 50 μM, 100 μM and 200 μM, and S3I-1756 at 200 μM for 18 hours. Cells were then lysed with RIPA buffer (20 mM Tris-HCl (pH 7.4), 5 mM EDTA, 10 mM Na4P2O7, 100 mM NaF, 2 mM Na3VO4, 1% NP-40.1 mM PMSF and 10 mg/ml aprotinin). The cell lysates were denatured by boiling with 5×SDS-PAGE sample buffer for 5 minutes and run on SDS-PAGE gel. The proteins were then transferred to membranes that were blocked with 5% non-fat milk in Tris Buffer Saline with 0.1% Tween-20 (TBST) buffer for 30 minutes at room temperature, and incubated with primary antibodies (pY705STAT3, pAKT, AKT, pERK1/2, MMP9, and CyclinDi) 4° C. overnight at dilution of 1:1000 in 3% BSA, followed by washing and incubation with secondary antibody at dilution of 1:1000 in 5% non-milk Tris Buffer Saline with 0.1% Tween-20 (TBST) buffer for 1 hours at room temperature. The membranes were then washed with 1×PBS buffer for 10 minutes for 3 times and developed with ECL kit (PerkinElmer, Waltham, Mass., USA).
# To this end, MDA-MB-468 cells were treated with vehicle, S3I-1756 or increasing concentration of S3I-1757 and processed for western blotting.
# MDA-MB-468 cells = experiment: anchorage independent growth by soft agar assay, MDA-MB-468; settings: constitutively active STAT3
# Procedure: (§1) Soft agar colony formation assays were performed in 12-well plate as described in Balasis, et al., Clin. Cancer. […] Colonies were allowed to grow for 3-4 weeks, and quantified by staining with 1 mg/mL MTT (Sigma, St. Louis, Mo., USA) overnight.
# (§2) Several cell lines were used, some with persistently Y705 phosphorylated STAT3 and others without (FIG. 9A).
# H460 cells = experiment: anchorage independent growth by soft agar assay, H460; settings: low activated STAT3 level
# Procedure: as §1, §2
# dimerization of FLAG-STAT3 and HA-STAT3, sequence (P42227 whole entry): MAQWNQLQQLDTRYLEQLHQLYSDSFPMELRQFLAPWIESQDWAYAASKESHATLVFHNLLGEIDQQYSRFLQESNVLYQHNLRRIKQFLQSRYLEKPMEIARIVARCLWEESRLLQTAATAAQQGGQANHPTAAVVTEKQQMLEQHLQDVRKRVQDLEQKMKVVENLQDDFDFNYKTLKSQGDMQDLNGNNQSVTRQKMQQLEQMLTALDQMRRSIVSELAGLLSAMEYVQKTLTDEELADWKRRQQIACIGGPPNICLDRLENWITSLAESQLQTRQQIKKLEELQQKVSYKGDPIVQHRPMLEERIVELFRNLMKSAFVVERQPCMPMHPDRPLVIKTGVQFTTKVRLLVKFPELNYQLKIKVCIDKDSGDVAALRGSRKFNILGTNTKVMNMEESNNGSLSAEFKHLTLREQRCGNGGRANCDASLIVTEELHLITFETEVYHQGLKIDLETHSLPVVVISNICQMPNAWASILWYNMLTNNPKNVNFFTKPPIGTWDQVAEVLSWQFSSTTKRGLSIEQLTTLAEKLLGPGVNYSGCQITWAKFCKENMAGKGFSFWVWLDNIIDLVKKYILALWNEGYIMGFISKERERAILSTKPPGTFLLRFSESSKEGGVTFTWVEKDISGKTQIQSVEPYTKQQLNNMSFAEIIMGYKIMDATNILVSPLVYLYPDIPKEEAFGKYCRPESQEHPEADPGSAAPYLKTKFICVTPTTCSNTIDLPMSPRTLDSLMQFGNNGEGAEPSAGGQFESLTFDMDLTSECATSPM
# binding of FLAG-STAT3 to HA-STAT3, sequence (P42227 whole entry): as above
# T1 sequence (P42227 whole entry): as above
smiles,measurement,setting,value
"O=C(O)c1cc(N(Cc2ccc(C3CCCCC3)cc2)C(=O)c2ccc(Oc3ccccc3)cc2)ccc1O [Compound 20g, 5-(N-(4-Cyclohexylbenzyl)-4-phenoxybenzamido)-2-hydroxybenzoic acid]",binding of FLAG-STAT3 to HA-STAT3 (co-immunoprecipitation),[1],inhibited the binding of FLAG-STAT3 to HA-STAT3 in a concentration-dependent manner
same,EGFR and P-STAT3 co-immunoprecipitated with HA-STAT3,STAT3 binding to EGFR,inhibited these interactions
same,co-localization of FLAG-STAT3 and HA-STAT3 (yellow color),[2],progressively less yellow color over time
same,"expression of STAT3 target genes Bcl-xL, survivin, cyclin D1, MMP9",[3],inhibited the expression of STAT3 target genes
same,phosphorylation of STAT3-Y705 (western blotting),[3],inhibited the phosphorylation of STAT3-Y705 in a concentration dependent manner starting at 50 μM
same,selectivity of inhibition over Akt and Erk1/2 phosphorylation,[3],selective for STAT3 over Akt and Erk1/2 phosphorylation
same,"anchorage independent growth (soft agar), MDA-MB-468",MDA-MB-468 cells,significantly inhibited
same,"anchorage-independent growth (soft agar), H460",H460 cells,little effect
